Values quoted from earlier work, collected in PMC7357169, “Blinded, Multicenter Evaluation of Drug-induced Changes in Contractility Using Human-induced Pluripotent Stem Cell-derived Cardiomyocytes” (Toxicological Sciences, 2020).
Like-named read-outs stand apart in the source and are kept apart here.

Experiments:
[1] = cited from earlier work; for FTPC: free therapeutic plasma concentration, Refs of Supplementary Table 1; for FPTC (free plasma therapeutic concentration): ref Supplementary Table 1
heart = test system: heart; design: method as in Refs column of Supplementary Table 1; conditions: Refs of Supplementary Table 1; cited from earlier work
cardiac contractility = conditions: cited from earlier work; for Expected effect on contractility in isolated cardiomyocytes/heart muscles / EC50 / IC50: Refs of Supplementary Table 1, isolated cardiomyocytes/heart muscles; for EC50: read-out: Expected effect on contractility in isolated cardiomyocytes/heart muscles, EC50; for IC50: negative inotropy, read-out: Expected effect on contractility in isolated cardiomyocytes/heart muscles, IC50
[2] = heart muscle, at 500 µM, ref (Kirby et al. 1992), (Baudet et al. 1993)

Row | Compound | FTPC [1] [µM] | FPTC (free plasma therapeutic concentration) [1] [µM] | Expected cardiac effects in vivo (heart) | Expected effect on contractility in isolated cardiomyocytes/heart muscles (cardiac contractility) | further results
1 | CC(=O)Oc1ccccc1C(=O)O [Acetylsalicylic acid] | 0.3 to 2 | 0.3 to 2 | None | None | 
2 | CC(C)NCC(O)COc1ccc(CC(N)=O)cc1 (centres unmarked) [Atenolol] |  |  | NI, NC, ND | None (in absence of agonist) until 3000 µM (in contrast to e.g. propranolol) | 
3 | COC(=O)C1=C(C)NC(C)=C([N+](=O)[O-])C1c1ccccc1C(F)(F)F (centres unmarked) [Bay K 8644] |  |  | PI (indirect NC because of RR increase) | PI, NL | 
4 | C[C@H](CS)C(=O)N1CCC[C@H]1C(=O)O [Captopril] | 1 to 2 | 1 to 2 | None | None | 
5 | CN(C)CCCC1(c2ccc(F)cc2)OCc2cc(C#N)ccc21 (centres unmarked) [Citalopram] | 0.05 | 0.05 | None (at therapeutic doses), higher risk of TdP | NI at 30 µM | NI (cardiac contractility; at 30 µM, in hEHT, ref (Witchel et al. 2002), (Mannhardt et al. 2017), (Rao 2007)): -57%; NI (cardiac contractility; at 30 µM, in human atria, ref (Witchel et al. 2002), (Mannhardt et al. 2017), (Rao 2007)): -38%
6 | Clc1cccc(Cl)c1N=C1NCCN1 [Clonidine] | 0.002 to 0.004 | 0.002 to 0.004 | NI, NC | None | 
7 | COc1ccc(C(=O)N2CCCc3cc(C4=NNC(=O)SC4C)ccc32)cc1OC (centres unmarked) [EMD 57033] | 16 |  |  | PI, NL | EC50 (cardiac contractility): ~5 µM
8 | O=C(NCC1CCCCN1)c1cc(OCC(F)(F)F)ccc1OCC(F)(F)F (centres unmarked) [Flecainide] |  |  |  |  | IC50 (cardiac contractility): 0.3 µM
9 | COc1ccc(Cl)cc1C(=O)NCCc1ccc(S(=O)(=O)NC(=O)NC2CCCCC2)cc1 [Glibenclamide] | 0.02 to 0.06 | 0.02 to 0.06 | None or PI in ischemia | None; PI in ischemia or presence of KATP opener; NI in adrenalectomized dogs, NE in isolated dog heart trabeculae | 
10 | CCC(C)n1ncn(-c2ccc(N3CCN(c4ccc(OCC5COC(Cn6cncn6)(c6ccc(Cl)cc6Cl)O5)cc4)CC3)cc2)c1=O (centres unmarked) [Itraconazole] | 0.00086 | 0.00086 |  |  | NI (cardiac contractility; at 0.3 µM, rabbit heart, ref (Head et al. 2015), (Qu et al. 2013), (Bellmann 2007)): -30%
11 | CC(=O)Nc1ccc(O)cc1 [Paracetamol] | 50 | 50 | None | None | 
12 | Cc1ccc(N(CC2=NCCN2)c2cccc(O)c2)cc1 [Phentolamine] |  |  |  |  | free plasma concentration in patients ([1]; patients, ref Wallis et al., 2015): approximately 2.5 µM; inotropic effect at concentrations above 10 µM (cardiac contractility; above 10 µM, via modulation of fast sodium and L-type calcium channels, ref Rosen et al., 1971, Sada, 1978): negative inotropy; inotropic effect at free plasma concentrations (cardiac contractility; approximately 2.5 µM in patients, ref Wallis et al., 2015): neutral inotrope; IC50 (cardiac contractility): ~20 µM
13 | CCCc1nn(C)c2c(=O)[nH]c(-c3cc(S(=O)(=O)N4CCN(C)CC4)ccc3OCC)nc12 [Sildenafil] |  |  | None or PI+PC (indirect) | None | 
14 | CNC(=O)c1cc(Oc2ccc(NC(=O)Nc3ccc(Cl)c(C(F)(F)F)c3)cc2)ccn1 [Sorafenib] | 0.03 | 0.03 | None or NI at high doses, delayed cardiotox | None (feline and canine CM, but cell death), NI (rat heart) | 
15 | CC(C)(C)NCC(O)c1cc(O)cc(O)c1 (centres unmarked) [Terbutaline] | 1.3 | 1.3 |  |  | EC50 (cardiac contractility): 3 µM
16 | COc1ccc(CCN(C)CCCC(C#N)(c2ccc(OC)c(OC)c2)C(C)C)cc1OC (centres unmarked) [Verapamil] |  |  | NI (direct) partially masked by adrenergic activation (indirect), NC or none, ND (direct) |  | IC50 (cardiac contractility): 0.1 µM
17 | CN(C)C/C=C(/c1ccc(Br)cc1)c1cccnc1 [Zimelidine] |  |  | None (at ther. doses), QT and QRS widening at high doses |  | 
18 | Cn1c(=O)c2c(ncn2C)n(C)c1=O [caffeine] |  |  |  | Small PI and PL at 100 µM, transient large PI, NL at >10 mM | 
19 | CC(C)[C@@]1(O)[C@@H](OC(=O)c2ccc[nH]2)[C@@]2(O)[C@@]3(C)C[C@]4(O)O[C@@]5([C@H](O)[C@@H](C)CC[C@]35O)[C@@]2(O)[C@@]14C [ryanodine] |  |  |  | NI, NCl, species dependent biphasic | IC50 (cardiac contractility): ~0.01 µM
20 | C/C=C(/C)C(=O)O[C@H]1C(C)=C2[C@H]([C@@H]1OC(=O)CCCCCCC)[C@@](C)(OC(C)=O)C[C@H](OC(=O)CCC)[C@@]1(O)[C@H]2OC(=O)[C@@]1(C)O [thapsigargin] |  |  |  |  | NI (cardiac contractility; [2]): ~50%; NL (cardiac contractility; [2]): ~20%; NI (cardiac contractility; isolated myocytes, at 0.1 µM, ref (Kirby et al. 1992), (Baudet et al. 1993)): ~90%
